Measurements from US20250145608A1, “KRAS DEGRADING COMPOUNDS COMPRISING ANNULATED 2-AMINO-3-CYANO THIOPHENES” (Boehringer Ingelheim Int'l GmbH Corp., priority 2021, published 2025).

Tests used:
Type in all cases: cell-based
[1] = biological target: T1, KRAS4B G12D (Homo sapiens, UniProt P01116, G12D); test: HiBit KRAS4B mutant spectrum degradation assay, KRAS4B G12D in GP5d cells (18 h); details: KRAS mutation G12D
T1 construct: HiBit; expressed in transfected cells; host or cells: GP5d cells (ECACC 95090715), stably transduced with lentivirus, CMV promoter
Description: The therapeutically relevant mutant KRAS constructs (WT, G12C, G12D, G12V, G13D) were obtained by site directed mutagenesis using a KRAS4B WT cDNA construct as a template. GP5d cells (ECACC Cat. No. 95090715) were transduced with lentiviral vectors expressing mutant KRAS4B cDNA under control of a CMV promoter. Stably transduced cells were selected using a neomycin selectable marker encoded on the construct.
To assess PROTAC-mediated degradation of various KRAS mutants, GP5d cells stably transduced with KRAS4B constructs as described above were seeded at 25000 cells per well in 100 μL Dulbecco's Modified Eagle medium (Sigma cat. no. D6429) supplemented with 10% fetal calf serum into white bottom opaque 96 well plates (Perkin Elmer cat no. 5680). Plates were incubated at 37° C., 5% CO2 in a humidified incubator over night to allow the cells to adhere. […] Plates were further incubated at 37° C. for 18 hours. Following incubation, 100 μL per well Promega Nano-Glo HiBit lytic detection reagent mix (Promega Nano-Glo HiBit Lytic Detection System #N3050), prepared according to the manufacturer's instructions in the kit, were added. To allow for adequate cell lysis, plates were incubated on an orbital shaker for 15 min and further incubated 30 min at room temperature. Upon completion of cell lysis, luminescence was measured using an Envision plate reader using the Ultrasensitive Luminescence Protocol for 96 well plates. Luminescence levels were normalized by the values obtained with DMSO-treated samples and plotted as percent of DMSO control. DC50 values were computed using a four parametric logistic model and are reported in nM in Table 65 for representative example (Ex.) compounds of the invention. Dmax values represent the maximal extent of degradation observed and is stated as percent of control (% Ctrl.) treatments in Table 66 for representative example (Ex.) compounds of the invention.

[2] = test system: GP2D cells; test: GP2D proliferation assay (120 h) (colorectal cancer, G12D)
Method: GP2D Proliferation Assay (120 h) (Colorectal Cancer, G12D)
GP2D cells (ATCC No. CRL-5807) are dispensed into white 384-well plates, flat and white bottom (Perkin Elmer, 6007680) at a density of 500 cells per well in 40 μl DMEM (Sigma, D6429)+1× GlutaMAX (Gibco, 35050038)+10% FCS (fetal calf serum). […] Compounds (10 mM stock in DMSO) are added at logarithmic dose series using the HP Digital Dispenser D300 (Tecan), including DMSO controls and normalizing for added DMSO. For the TO time point measurement, untreated cells are analyzed at the time of compound addition. Plates are incubated for 120 h, and cell viability is measured using CellTiter-Glo luminescent cell viability reagent (Promega product code G7570). Viability (stated as percent of control) is defined as relative luminescence units RLU of each well divided by the RLU of cells in DMSO controls. IC50 values are determined from viability measurements by non-linear regression using a four parameter model.

[3] = test system: GP5d cells; test: GP5d cell proliferation assay (colorectal cancer, G12D), 5 days; details: Homo sapiens, 120 h
Summary of the method: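 Cells in DMEM + 10% FCS received logarithmic compound dilutions (DMSO-normalized) and were grown for 5 days. Viability read by CellTiter-Glo luminescence as percent of DMSO controls, with a T0 reading at compound addition; IC50 from a four-parameter logistic fit.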

T1 sequence (P01116 1-188 isoform P01116-2 G12D): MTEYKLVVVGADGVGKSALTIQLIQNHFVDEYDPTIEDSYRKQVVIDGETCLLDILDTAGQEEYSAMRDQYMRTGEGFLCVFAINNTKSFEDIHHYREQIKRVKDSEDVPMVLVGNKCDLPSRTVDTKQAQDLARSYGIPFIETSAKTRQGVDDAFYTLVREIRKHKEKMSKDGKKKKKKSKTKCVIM

| Compound | DC50 [1] [nM] | Dmax at 18 h [1] [% Ctrl.] | IC50 [2] [nM] | IC50 [3] [nM] |
| --- | --- | --- | --- | --- |
| Cc1ncsc1-c1ccc([C@H](CO)NC(=O)[C@@H]2C[C@@H](O)CN2C(=O)[C@H](C(C)C)n2cc(OCCCC(C)N3CCCN(c4nccc(-c5noc([C@@]6(C)CCCc7sc(N)c(C#N)c76)n5)n4)[C@@H](C)C3)nn2)cc1 (stereo partly shown) [I-30] | 0.8 | 96.1 | 6.4 | – |
| Cc1ncsc1-c1ccc([C@H](C)NC(=O)[C@@H]2C[C@@H](O)CN2C(=O)C(C(C)C)n2cc(OCCCCN3CCCN(c4nccc(-c5noc([C@@]6(C)CCCc7sc(N)c(C#N)c76)n5)n4)[C@@H](C)C3)nn2)cc1 (stereo partly shown) [I-28] | – | – | 2.9 | – |
| Cc1ncsc1-c1ccc([C@@H](NC(=O)[C@@H]2C[C@@H](O)CN2C(=O)[C@H](C(C)C)n2cc(OCCCN3CCCN(c4nccc(-c5noc([C@@]6(C)CCCc7sc(N)c(C#N)c76)n5)n4)[C@@H](C)C3)nn2)[C@H](O)C(C)C)cc1 (single isomer, unassigned) [I-43] | 1.3 | 95.8 | 6.6 | – |
| Cc1ncsc1-c1ccc([C@H](CO)NC(=O)[C@@H]2C[C@@H](O)CN2C(=O)[C@H](C(C)C)n2cc(OC(C)CCCN3CCCN(c4nccc(-c5noc([C@@]6(C)CCCc7sc(N)c(C#N)c76)n5)n4)[C@@H](C)C3)nn2)cc1 (stereo partly shown) [I-31] | 3.3 | 95.8 | 26.1 | – |
| Cc1ncsc1-c1ccc(CNC(=O)[C@@H]2C[C@@H](O)CN2C(=O)[C@@H](c2cc(OCCCN3CCCN(c4nccc(-c5noc([C@@]6(C)CCCc7sc(N)c(C#N)c76)n5)n4)[C@@H](C)C3)no2)C(C)C)cc1 (single isomer, unassigned) [I-25] | 1.3 | 96 | – | 3.97 |
| Cc1ncsc1-c1ccc([C@H](CCO)NC(=O)[C@@H]2C[C@@H](O)CN2C(=O)[C@H](C(C)C)n2cc(OCCCCN3CCCN(c4nccc(-c5noc([C@@]6(C)CCCc7sc(N)c(C#N)c76)n5)n4)[C@@H](C)C3)nn2)cc1 [I-38] | – | – | 12.6 | – |
| Cc1ncsc1-c1ccc([C@@H](NC(=O)[C@@H]2C[C@@H](O)CN2C(=O)[C@H](C(C)C)n2cc(OCCCCN3CCCN(c4nccc(-c5noc([C@@]6(C)CCCc7sc(N)c(C#N)c76)n5)n4)[C@@H](C)C3)nn2)[C@H](O)C(C)C)cc1 (single isomer, unassigned) [I-45] | – | – | 9.4 | – |
| Cc1ncsc1-c1ccc(CNC(=O)[C@@H]2C[C@@H](O)CN2C(=O)[C@@H](c2cc(OCCCCN3CCCN(c4nccc(-c5noc([C@@]6(C)CCCc7sc(N)c(C#N)c76)n5)n4)[C@@H](C)C3)no2)C(C)C)cc1 (single isomer, unassigned) [I-27] | 1.1 | 95 | 5.1 | 4 |
| Cc1ncsc1-c1ccc(CNC(=O)[C@@H]2C[C@@H](O)CN2C(=O)C(c2cc(OCCCCN3CCCN(c4nccc(-c5cc([C@@]6(C)CCCc7sc(N)c(C#N)c76)on5)n4)[C@@H](C)C3)no2)C(C)C)cc1 (stereo partly shown) [I-4] | – | – | – | 36.1 |
| Cc1ncsc1-c1ccc([C@@H](NC(=O)[C@@H]2C[C@@H](O)CN2C(=O)[C@H](C(C)C)n2cc(OCCCCN3CCCN(c4nccc(-c5noc([C@@]6(C)CCCc7sc(N)c(C#N)c76)n5)n4)[C@@H](C)C3)nn2)[C@H](C)O)cc1 (single isomer, unassigned) [I-41] | 1.3 | 96.1 | 7.7 | – |
| Cc1ncsc1-c1ccc([C@H](CO)NC(=O)[C@@H]2C[C@@H](O)CN2C(=O)[C@H](C(C)C)n2cc(OCCCCN3CCCN(c4nccc(-c5noc([C@@]6(C)CCCc7sc(N)c(C#N)c76)n5)n4)[C@@H](C)C3)nn2)cc1 [I-29] | 1.5 | 96.0 | 8.5 | – |
| Cc1ncsc1-c1ccc(CNC(=O)[C@@H]2C[C@@H](O)CN2C(=O)[C@H](c2cc(OCCCN3CCCN(c4nccc(-c5noc([C@@]6(C)CCCc7sc(N)c(C#N)c76)n5)n4)[C@@H](C)C3)no2)C(C)C)cc1 (single isomer, unassigned) [I-24] | – | – | – | 766 |
| CC(C)C(C(=O)N1C[C@H](O)C[C@H]1C(=O)NCc1ccc(C#N)cc1)c1cc(OCCCCN2CCCN(c3nccc(-c4noc([C@@]5(C)CCCc6sc(N)c(C#N)c65)n4)n3)[C@@H](C)C2)no1 (stereo partly shown) [I-16] | – | – | 33.3 | – |
